Laboratory results reported in patent US20240425475A1, “COMPOUND BASED ON QUINAZOLINE-SUBSTITUTED GLUTARIMIDE SKELETON AND USE THEREOF” (GLUETACS THERAPEUTICS (SHANGHAI) CO., LTD., priority 2022, published 2024).

Tests used:
[1] = tested on: Human diffuse large B-cell lymphoma cell line: TMD8; experiment: Half inhibitory concentration (IC50) against tumor cells, CCK-8 cell viability; format: cell-based; conditions: 96 h treatment
Method: The tumor cells used herein were cultured in a cell culture medium listed in table 2 at 37° C. in an incubator with 5% CO2. Prior to experimentation, all cells used were correctly identified by STR profiling, and tested negative for mycoplasma through routine screenings. [table] Determination of Half Inhibitory Concentration (IC50) of the Compounds Against Tumor Cells: IC50 values of the compounds of the present disclosure (including the compounds in Table 1, and compounds of examples 1-104) were measured using the Meilun Cell Counting Kit-8 kit from Dalian Meilun Biotech Co., Ltd. Assay details are as follows: tumor cells were seeded in a 96-well plate at a density listed in Table 3. After 24 h, 100 μL of the inoculated cells were treated with 0.5 μl of the compounds of the present disclosure (including the compounds in Table 1, and compounds of examples 1-104) at 10 different successively decreasing concentrations (starting at the highest concentration of […]; 5-fold serial dilutions). After the cells were treated with the compounds of the present disclosure for a period of time, cell viability was measured according to the instructions provided with the CCK-8 kit. DMSO served as the negative control, and corresponding commercial immunomodulatory drug Avadomide (CC-122) was used as the positive control, both of which treated the cells using the same protocol as that of the compounds of the present disclosure. The growth inhibition of the compounds of the present disclosure on cells was plotted by Prism Graphpad software, and the IC50 values of the compounds of the present disclosure were calculated therefrom. [table] We tested the activities of the compounds of the present invention (including the compounds in Table 1 and Examples 1-104 compounds) in tumor cells through a dose-dependent manner. The cells were treated with the compounds of the present invention at 10 different successively decreasing concentrations (starting at the highest concentration of 10 μM; 5-fold serial dilutions) for 72 h or 96 h, and then the cell viability determination was performed in accordance with CCK-8 reagent operating instructions.

[2] = molecular target: human Cereblon WT GST-tagged protein (Homo sapiens (Human), UniProt Q96SW2); experiment: CRBN-binding affinity, CEREBLON BINDING kit (HTRF); conditions: HTRF inhibitory activity, binding to CRBN
human Cereblon WT GST-tagged protein, sequence (Q96SW2 whole entry): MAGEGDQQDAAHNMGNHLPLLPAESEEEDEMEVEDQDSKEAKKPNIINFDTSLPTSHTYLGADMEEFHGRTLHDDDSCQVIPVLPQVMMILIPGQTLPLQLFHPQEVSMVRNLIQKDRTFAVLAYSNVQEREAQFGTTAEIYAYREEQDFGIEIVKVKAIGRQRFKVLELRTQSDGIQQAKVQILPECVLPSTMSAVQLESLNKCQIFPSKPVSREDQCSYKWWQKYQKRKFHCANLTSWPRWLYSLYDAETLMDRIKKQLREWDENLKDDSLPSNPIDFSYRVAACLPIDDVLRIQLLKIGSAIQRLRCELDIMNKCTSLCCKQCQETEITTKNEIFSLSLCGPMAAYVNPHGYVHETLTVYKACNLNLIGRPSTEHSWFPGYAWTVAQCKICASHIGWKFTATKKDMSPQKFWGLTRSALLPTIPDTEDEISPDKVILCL
Excerpt: Determination of CRBN-Binding Affinity of Compounds
The CEREBLON BINDING kits (specification: 10,000 tests; product number: Catalog #64BDCRBNPEH; CISBIO company) was used to determine the CRBN binding ability of the compounds to be tested through a HTRF method (homogeneous time-resolved fluorescence). The specific methods are as follows: • 1. According to the instructions of the CEREBLON BINDING kits, the compounds to be tested of the present invention and lenalidomide were serially diluted using diluent #9 (1×) solution to obtain a final concentration of 2 μM for both the tested compounds and lenalidomide solution. • 2.2.5 μL of the above 2 μM of the tested compounds and lenalidomide solution, as well as the same volume of diluent #9 (1×) solution (solvent control group, Std0) were taken and added to each well of a 96-well plate, respectively. Then, 2.5 μL of (human Cereblon WT GST-tagged protein) solution was added to each well. Finally, 5 μL of the uniformly mixed thalidomide-Red reagent and GST Eu antibody working solution were added to each of the above wells. The final concentration of the tested compounds and lenalidomide in each well is 0.5 μM. • 3. The blank control wells were sequentially added with 2.5 μL of diluent #9 (1×) solution, 2.5 μL of PROTAC binding buffer, and 5 μL of uniformly mixed thalidomide-Red reagent and GST Eu antibody working solution. • 4. After sealing and incubating the solutions in the above wells at room temperature for 3 hours, the absorbance values at emission wavelengths of 620 nm and 665 nm were detected by the HTRF method using a Spark microplate reader (V3.1 SP1).
The corresponding CRBN binding inhibition rate was calculated using the following method: […]
Note: OD 665 nmcompound is the absorbance value of each well of the compounds to be tested of the present disclosure at an emission wavelength of 665 nm.
OD 620 nmcompound is the absorbance value of each well of the compounds to be tested of the present disclosure at an emission wavelength of 620 nm.
OD 665 nmcontrol is the absorbance value of the blank control well at an emission wavelength of 665 nm.
OD 620 nmcontrol is the absorbance value of the blank control well at an emission wavelength of 620 nm.
OD 665 nmstd0 is the absorbance value of the solvent control well at an emission wavelength of 665 nm.
OD 620 nmstd0 is the absorbance value of the solvent control well at an emission wavelength of 620 nm.

| SMILES | IC50 [1] | IC50 [2] |
| --- | --- | --- |
| Cc1nc2cccc(NCCCCNC34CC5CC(CC(C5)C3)C4)c2c(=O)n1C1CCC(=O)NC1=O (stereo not drawn) [GT-01818, 3-(5-((4-(((3s,5s,7s)-adamantan-1-yl)amino)butyl)amino)-2-methyl-4-oxoquinazolin-3(4H)-yl)piperidine-2,6-dione] | 554 nM | – |
| Cc1nc2cccc(NCCOCCOCCNC34CC5CC(CC(C5)C3)C4)c2c(=O)n1C1CCC(=O)NC1=O (stereo not drawn) [GT-02279, 3-(5-((2-(2-(2-(((1s,3s)-adamantan-1-yl)amino)ethoxy)ethoxy)ethyl)amino)-2-methyl-4-oxoquinazolin-3(4H)-yl)piperidine-2,6-dione] | 438 nM | – |
| Cc1nc2cccc(NCCCCCNC34CC5CC(CC(C5)C3)C4)c2c(=O)n1C1CCC(=O)NC1=O (stereo not drawn) [GT-02280, 3-(5-((5-(((3s,5s,7s)-adamantan-1-yl)amino)pentyl)amino)-2-methyl-4-oxoquinazolin-3(4H)-yl)piperidine-2,6-dione] | 409 nM | – |
| Cc1nc2cccc(NCCCCCNC(=O)C34CC5CC(CC(C5)C3)C4)c2c(=O)n1C1CCC(=O)NC1=O (stereo not drawn) [GT-02323, (3r,5r,7r)-N-(5-((3-(2,6-dioxopiperidin-3-yl)-2-methyl-4-oxo-3,4-dihydroquinazolin-5-yl)amino)pentyl)adamantane-1-carboxamide] | 652 nM | – |
| Cc1nc2cccc(NCCCCCNC3C4CC5CC(C4)CC3C5)c2c(=O)n1C1CCC(=O)NC1=O (stereo not drawn) [GT-02393, 3-(5-((5-(((1r,3r,5r,7r)-adamantan-2-yl)amino)pentyl)amino)-2-methyl-4-oxoquinazolin-3(4H)-yl)piperidine-2,6-dione] | 458 nM | 420 nM |
| Cc1nc2cccc(NCCCCCCNC34CC5CC(CC3C5)C4)c2c(=O)n1C1CCC(=O)NC1=O [GT-02494, 3-(5-((6-(((2R,3as,5S,6as)-hexahydro-2,5-methanopentalen-3a(1H)-yl)amino)hexyl)amino)-2-methyl-4-oxoquinazolin-3(4H)-yl)piperidine-2,6-dione] | 184 nM | 460 nM |
| Cc1nc2cccc(N3C4CC3CN(CCC35CC6CC(CC(C6)C3)C5)C4)c2c(=O)n1C1CCC(=O)NC1=O (stereo not drawn) [GT-04231, 3-(5-(3-(2-((3r,5r,7r)-adamantan-1-yl)ethyl)-3,6-diazabicyclo[3.1.1]heptan-6-yl)-2-methyl-4-oxoquinazolin-3(4H)-yl)piperidine-2,6-dione] | – | 3240 nM |

Continued, values first:

| IC50 [1] | IC50 [2] | SMILES |
| --- | --- | --- |
| 474 nM | 420 nM | Cc1nc2cccc(NCCCCCNC34CC5CC(CC3C5)C4)c2c(=O)n1C1CCC(=O)NC1=O [GT-02496, 3-(5-((5-(((2R,3as,5S,6as)-hexahydro-2,5-methanopentalen-3a(1H)-yl)amino)pentyl)amino)-2-methyl-4-oxoquinazolin-3(4H)-yl)piperidine-2,6-dione] |
| 448 nM | – | Cc1nc2cccc(NCCCCCCCN3CC4CC4C3)c2c(=O)n1C1CCC(=O)NC1=O (stereo not drawn) [GT-02772, 3-(5-((7-(3-azabicyclo[3.1.0]hexan-3-yl)heptyl)amino)-2-methyl-4-oxoquinazolin-3(4H)-yl)piperidine-2,6-dione] |
| 440 nM | 2800 nM | Cc1nc2cccc(NCCCCCCCN3CCC4(CC3)CC(F)(F)C4)c2c(=O)n1C1CCC(=O)NC1=O (stereo not drawn) [GT-02773, 3-(5-((7-(2,2-difluoro-7-azaspiro[3.5]nonan-7-yl)heptyl)amino)-2-methyl-4-oxoquinazolin-3(4H)-yl)piperidine-2,6-dione] |
| 102 nM | 2610 nM | Cc1nc2cccc(NCCCCCCCNC34CCC(F)(CC3)CC4)c2c(=O)n1C1CCC(=O)NC1=O (stereo not drawn) [GT-02774, 3-(5-((7-((4-fluorobicyclo[2.2.2]octan-1-yl)amino)heptyl)amino)-2-methyl-4-oxoquinazolin-3(4H)-yl)piperidine-2,6-dione] |
| 312 nM | 180 nM | Cc1nc2cccc(CCCCCCCCNC34CC5CC(CC(C5)C3)C4)c2c(=O)n1C1CCC(=O)NC1=O (stereo not drawn) [GT-02797, 3-(5-(8-(((1s,3s)-adamantan-1-yl)amino)octyl)-2-methyl-4-oxoquinazolin-3(4H)-yl)piperidine-2,6-dione] |
